Measurements from patent publication US11331367B1, “Compounds and methods for inhibiting protozoan parasites” (University of South Florida, priority 2018, dated 2022).
Non-standard residues stand in square brackets, D forms with d. Residues, ends and D or L forms follow the SMILES beside them. *: point of attachment. NMeI = CC[C@H](C)[C@H](NC)C(=O)O; dNMeF = CN[C@H](Cc1ccccc1)C(=O)O; X1 = C(=C/c1c[nH]c2ccccc12)/N*; NMeV = CN[C@H](C(=O)O)C(C)C; NMeA = CN[C@@H](C)C(=O)O

Test system: Plasmodium falciparum liver-stage parasites
Assay: microbe, parasite or virus in culture
Assay type: cell-based
Settings: for inhibition of P. falciparum liver-stage development (in words): in vitro liver model, drug treatment at 10 μM
Method: Bioactivity of friomaramide was evaluated for inhibition of Plasmodium falciparum liver-stage parasites and primary human hepatocyte (PHH) toxicity using an in vitro liver model. In brief, cryopreserved PHHs were seeded at 1.8×10^4 cells per well in a 384-well microplate. Freshly isolated P. falciparum sporozoites were inoculated at 2.0×10^4 per well with subsequent drug treatment at 10 μM. Media was changed daily with fresh addition of drug for 3 days until experiment fixation on day 6.

COc1cc(NC(C)CCCN)c2ncccc2c1 (stereo not drawn) [primaquine]
inhibition at 10 µM (Plasmodium falciparum, Hepatocyte, read-out: inhibition of P. falciparum liver-stage growth): > 90%

C[C@H]1[C@@H](O)O[C@@H]2O[C@@]3(C)CC[C@H]4[C@H](C)CC[C@@H]1[C@@]24OO3 [DHA]
inhibition of P. falciparum liver-stage development (in words): does not inhibit

CC[C@H](C)[C@@H](C(=O)N/C=C\c1c[nH]c2ccccc12)N(C)C(=O)[C@H]([C@@H](C)CC)N(C)C(=O)[C@H](C)N(C)C(=O)[C@H](C(C)C)N(C)C(=O)[C@@H](Cc1ccccc1)N(C)C(C)=O [friomaramide] (Ac-[dNMeF][NMeV][NMeA][NMeI][NMeI]-X1)
inhibition of P. falciparum liver-stage development (in words): block sporozoite invasion and subsequent liver-stage parasite development
